Reference: patent US11179348B2, “Combination comprising pterostilbene for the treatment of cancer” (FUNDACIÓN UNIVERSIDAD CATÓLICA DE VALENCIA SAN VICENTE …, priority 2015, dated 2021)
Where two headings read alike, the source gives them in different places. Marks after values point to notes of the source that are not given here.

Columns and labels:
MeWo melanoma cell line = test: Effect of anti-melanoma chemotherapy on viability (IC50) of in vitro growing MeWo; format: cell-based, human
Description: (§1) Human A2058, MeWo and MelJuso melanoma cells, and mouse AtT-20 pituitary corticotroph tumor cells were from the American Type Culture Collection (ATCC). Human HEMa-LP epidermal melanocytes were from Life Technologies (Grand Island, N.Y.). […] Cells were grown in Dulbecco's modified Eagle's medium (DMEM) (Invitrogen, San Diego, Calif.), pH 7.4, supplemented with 10% heat-inactivated FCS (Biochrom KG, Berlin, Germany), 100 units/ml penicillin and 100 μg/ml streptomycin. Cells were plated, at a density of 20,000 cells/cm2, and cultured at 37° C. in a humidified atmosphere with 5% CO2. […] Cell numbers were determined using a Coulter Counter (Coulter Electronic Inc., Miami, Fla.). Cells were allowed to attach for 12 h before any treatment addition.

A2058 melanoma cell line = test: Effect of anti-melanoma chemotherapy on viability (IC50) of in vitro growing A2058; format: cell-based, human
Description: as §1

[1] = system: MelJuso melanoma cell line; test: Effect of anti-melanoma chemotherapy on viability (IC50) of in vitro growing MelJuso; format: cell-based, human
Description: as §1

A2058 melanoma = test: In vivo growth of A2058 melanoma xenografts in nu/nu mice; set-up: species or system human; conditions: A2058-RFP; day 35; EGCG or Curc 50 mg/kg i.v. every 48 h, ± CRC
[2] = system: glucocorticoid receptors (GR); test: GR content of human cancer cells by [3H]-labeled ligand whole-cell binding assay; conditions: A2058-RFP tumors; day 35; EGCG or Curc 50 mg/kg, ± CRC
ACTH = test: Plasma ACTH levels (ELISA) in tumor-bearing mice; format: in vivo; conditions: A2058-bearing mice; day 35; 6 h circadian time; EGCG or Curc 50 mg/kg, ± CRC
Excerpt: (§2) Measurement of ACTH, Corticosterone, and NORA Levels.
(§3) Plasma levels of ACTH (Calbiotech, Inc., Spring Valley, Calif.), corticosterone (Kamiyama Biomedical Co., Seattle, Wash.), and NORA (IBL, Hamburg, Germany) were quantified by ELISA according to the instructions of the suppliers.

corticosterone = test: Plasma corticosterone levels (ELISA) in tumor-bearing mice; format: in vivo; conditions: A2058-bearing mice; day 35; 12 h circadian time; EGCG or Curc 50 mg/kg, ± CRC
Excerpt: as §2, §3

[3] = for deaths in the treated groups: 50 mg/kg i.v. every 48 h
Description: FIG. 12. Effect of (−)-epigallocatechin-3-gallate (EGCG) or curcumin (Curc) treatment on (A) human melanoma (A2058) and (B) pancreatic cancer (AsPC-1) growth in vivo. EGCG or Curc were administered i.v. every 48 h for a period of 5 weeks, starting 1 week after tumor cell inoculation. For this purpose EGCG was dissolved in physiological saline, whereas Curc was dissolved in DMSO.

[4] = system: AtT-20 pituitary corticotroph tumor cells; test: ACTH production and POMC expression in AtT-20 cells; format: cell-based, mouse; conditions: results not shown
Description: FIG. 3. Pterostilbene bioavailability in brain and the pituitary gland, and its effect on ACTH synthesis and POMC expression in AtT-20 cells. […] (B) Effect of pterostilbene on ACTH production by AtT-20 cells in a 24 h-period (measured between 24-48 h or between 48-72 h). […] After the 30 min period, culture flasks were washed out (three times with PBS) and the medium was renewed (controls received identical treatment).
as §3
RT-PCR and detection of mRNA was performed as described above. For Western blotting (see also above) POMC mouse monoclonal antibody (clone 2B2) from Origen (Rockville, Md.) were used.

[5] = system: A2058 cells isolated from tumor-bearing mice; test: Chemosensitization of cultured A2058 cells isolated from xenografts; format: cell-based, human; conditions: isolated A2058 cells without in vivo Pter treatment
Description: FIG. 5. Chemosensitization effect of GSH depletion (A) or sod1-AS (B) in melanoma cells isolated from Pter-treated mice. Melanoma cells were cultured as in FIG. 1C. PAC.PBP (100 ng/ml) was added to the culture flasks 24 h after seeding. […] Data are mean values±SD for 5-6 different experiments (*p<0.01, comparing all experimental conditions vs controls).
FIGS. 18-25. Effect of piperlongumine and I-BET762, as GSH depleting and chemosensitizing agents, in in vitro growing human melanoma, pancreatic, breast, lung, liver, prostate, ovarian, and colorectal cancer cells. Cancer cells, isolated from Pter-treated tumor-bearing mice, were cultured as indicated under Methods. Chemotherapy (0.25 μM PAC.PBP in A2058 melanoma and MDA-MB-231 breast carcinoma cells; 0.125 μM PAC.PBP and 25 μM GTB in AsPC-1 pancreatic cancer cells; 1 μM VRB and 15 μM cisPt in A459 lung carcinoma cells; 0.15 μM DXR in HepG2 hepatocellular carcinoma cells; 15 nM DCT in PC-3 prostate carcinoma cells; 0.15 μM PAC.PBP and 25 μM CarboPt in SK-OV-3 ovarian carcinoma cells; 3 μM 5-FU, 1 μM FA and 0.6 μM IRI in HT-29 colorectal carcinoma cells) was added to the cultured flasks 24 h after seeding. PL (1 μM in A2058 and AsPC-1 cells; 0.5 μM in A549 and HT-29 cells; 0.2 μM in HepG2, PC-3, and SK-OV-3 cells; 0.1 μM in MDA-MB-231 cells) or I-BET762 (0.5 μM in HT-29 cells; 0.2 μM in A2058, AsPC-1, HepG2, PC-3, and SK-OV-3 cells; 0.1 μM in A549 and MDA-MB-231 cells) were added 6 h later. Data are mean values±SD for 4-5 different experiments per cell line (*p<0.05 and **p<0.01, comparing all experimental conditions versus control. PL, piperlongumine; PAC.PBP, paclitaxel protein-bound particles; GTB, gemcitabine; DXR, doxorubicin; VRB, vinorelbin; CisPt, cisplatin; docetaxel, DCT; CarboPt, carboplatin; 5-FU, 5-fluoracil; FA, folinic acid; IRI, irinotecan; 5-FU+FA+IRI=FOLFIRI).
Human A2058, MeWo and MelJuso melanoma cells, and mouse AtT-20 pituitary corticotroph tumor cells were from the American Type Culture Collection (ATCC). Human HEMa-LP epidermal melanocytes were from Life Technologies (Grand Island, N.Y.). Human MDA-MB-231 (triple negative: ER−, PR−, HER2−) and MCF-7 (ER+, PR+, HER2−) breast adenocarcinoma, A549 lung adenocarcinoma (NSCLC), HepG2 hepatocellular carcinoma, LNCaP (AR+) and PC-3 (AR−) prostate adenocarcinoma, SK-OV-3 epithelial ovarian carcinoma, and HT-29 and Caco-2 colorectal carcinoma cells were from the American Type Culture Collection. Cells were grown in Dulbecco's modified Eagle's medium (DMEM) (Invitrogen, San Diego, Calif.), pH 7.4, supplemented with 10% heat-inactivated FCS (Biochrom KG, Berlin, Germany), 100 units/ml penicillin and 100 μg/ml streptomycin. Cells were plated, at a density of 20,000 cells/cm2, and cultured at 37° C. in a humidified atmosphere with 5% CO2. Cells were harvested by incubation for 5 min with 0.05% (w/v) trypsin (Sigma, St. Louis, Mo.) in PBS (10 mM sodium phosphate, 4 mM KCl, 137 mM NaCl), pH 7.4, containing 0.3 mM EDTA, followed by the addition of 10% FCS to inactivate the trypsin. Cell numbers were determined using a Coulter Counter (Coulter Electronic Inc., Miami, Fla.). Cells were allowed to attach for 12 h before any treatment addition. Cellular viability was assessed as previously reported (Mena, S. et al. Clin Cancer Res 13, 2658-2666 (2007)), by measuring trypan blue exclusion and leakage of lactate dehydrogenase activity.
Isolation of Tumor Cells from Mouse Xenografts Using Enzymatic Digestion and a double Ficoll gradient. […]

Row | Compound | IC50 (MeWo melanoma cell line; Homo sapiens) [µM] | IC50 (A2058 melanoma cell line; Homo sapiens) [µM] | IC50 ([1]; Homo sapiens, MEL-JUSO) [µM] | further results
1 | O=NN(CCCl)C(=O)NCCCl [BCNU, Carmustine] | > 100 | > 100 | 0.17 ± 0.06 | 
2 | N.N.[Cl][Pt][Cl] [Cisplatin] |  |  |  | IC50 (MeWo melanoma cell line): 44.3 ± 5.43 µM; IC50 (A2058 melanoma cell line): > 100 µM; IC50 [1]: 11.2 ± 1.77 µM
3 | COc1cc(/C=C/C(=O)CC(=O)/C=C/c2ccc(O)c(OC)c2)ccc1O [Curc, curcumin, reference compound] |  |  |  | Tumor vol. (A2058 melanoma): 606 ± 126* mm^3; GR number [2]: 71 ± 12 10^3 GR/cell; ACTH (ACTH): 113 ± 25 pg/mL plasma; CRC (corticosterone): 161 ± 17 ng/mL plasma; deaths in the treated groups [3]: did not cause deaths
4 | CN(C)/N=N/c1[nH]cnc1C(N)=O [Dacarbazine] | > 100 | > 100 | 56.7 ± 7.46 | 
5 | COc1cccc2c1C(=O)c1c(O)c3c(c(O)c1C2=O)C[C@@](O)(C(C)=O)C[C@@H]3O[C@H]1C[C@H](N)[C@H](O)[C@H](C)O1 [Daunorubicin] | 2.61 ± 0.51 | 2.4 ± 0.73 | 1.44 ± 0.35 | 
6 | O=C(O[C@@H]1Cc2c(O)cc(O)cc2O[C@@H]1c1cc(O)c(O)c(O)c1)c1cc(O)c(O)c(O)c1 [EGCG, (−)-epigallocatechin-3-gallate, reference compound] |  |  |  | Tumor vol. (A2058 melanoma): 894 ± 137 mm^3; GR number [2]: 77 ± 7 10^3 GR/cell; ACTH (ACTH): 215 ± 36 pg/mL plasma; CRC (corticosterone): 243 ± 31 ng/mL plasma; deaths in the treated groups [3]: did not cause deaths; deaths in the tumor-bearing groups ([3]; 60 mg/kg i.v. every 48 h): 45%
7 | CN(Cc1cnc2nc(N)nc(N)c2n1)c1ccc(C(=O)N[C@@H](CCC(=O)O)C(=O)O)cc1 [Methotrexate] | > 100 | > 100 | 1.35 ± 0.34 | 
8 | CC(=O)O[C@H]1C(=O)[C@@]2(C)[C@H]([C@H](OC(=O)c3ccccc3)[C@]3(O)C[C@H](OC(=O)[C@H](O)[C@@H](NC(=O)c4ccccc4)c4ccccc4)C(C)=C1C3(C)C)[C@]1(OC(C)=O)CO[C@@H]1C[C@@H]2O [Paclitaxel, (2α,4α,5β,7β,10β,13α)-4,10-Bis(acetyloxy)-13-{[(2R,3S)-3-(benzoylamino)-2-hydroxy-3-phenylpropanoyl]oxy}-1,7-dihydroxy-9-oxo-5,20-epoxytax-11-en-2-yl benzoate] | 11.1 ± 2.15 | 0.35 ± 0.1 | 0.13 ± 0.03 | 
9 | COc1cc(C=Cc2ccc(OC3OC(C(=O)O)C(O)C(O)C3O)cc2)cc(OC)c1 [Pter-G, Pterostilbene 4′-O-D-glucuronide] |  |  |  | decrease of ACTH production in AtT-20 cells by pterostilbene conjugates [4]: None
10 | COc1cc(C=Cc2ccc(OS(=O)(=O)O)cc2)cc(OC)c1 [Pter-S, pterostilbene-4′-sulfate] |  |  |  | decrease of ACTH production in AtT-20 cells by pterostilbene conjugates [4]: None
11 | Cn1nnc2c(C(N)=O)ncn2c1=O [Temozolomide] | > 100 | > 100 | > 100 | 
12 | CCCC(CCC)C(=O)O [Valproic acid] | > 100 | > 100 | 66.2 ± 6.39 | 
13 | CC[C@]1(O)C[C@@H]2CN(CCc3c([nH]c4ccccc34)[C@@](C(=O)OC)(c3cc4c(cc3OC)N(C)[C@H]3[C@@](O)(C(=O)OC)[C@H](OC(C)=O)[C@]5(CC)C=CCN6CC[C@]43[C@@H]65)C2)C1 [Vinblastine] | 14.5 ± 2.17 | 7.65 ± 1.35 | 0.19 ± 0.04 | 
14 | CC[C@]1(O)C[C@H]2CN(CCc3c([nH]c4ccccc34)[C@@](C(=O)OC)(c3cc4c(cc3OC)N(C=O)[C@H]3[C@@](O)(C(=O)OC)[C@H](OC(C)=O)[C@]5(CC)C=CCN6CC[C@]43[C@@H]65)C2)C1 [Vincristine] | 12.5 ± 3.04 | 6.19 ± 2.06 | 0.15 ± 0.02 | 
15 | Arsenate |  |  |  | IC50 (MeWo melanoma cell line): 94.4 ± 12.4 µM; IC50 (A2058 melanoma cell line): > 100 µM; IC50 [1]: 65.5 ± 5.19 µM
16 | Diethylmaleate [DEM] |  |  |  | Cell number ([5]; culture time 24 h): 0.49 ± 0.10 ×10^6; Cell number ([5]; culture time 36 h): 0.51 ± 0.05 ×10^6; Cell number ([5]; culture time 48 h): 0.56 ± 0.08 ×10^6; Cell number ([5]; culture time 72 h): 0.67 ± 0.06* ×10^6
